The values below come from paper PMC5905968, “Evaluation of the fusion inhibitor P3 peptide as a potential microbicide to prevent HIV transmission in women” (PLoS ONE, 2018).

Data set [1] in a line: LC-MS/MS determination of P3 after exposure to seminal plasma or vaginal fluid simulant. The data set is classed as in vitro ADME, human. Conditions: triplicates; for P3 level: 37°C, LC-MS/MS, below limit of quantification (2.5 ppm). As for the experimental part: Individual standard solutions (0.25–250 ppm) of P3 were prepared in acetonitrile (99.9% LC–MS) (J.T.Baker, Deventer, the Netherlands) in the presence of SP (0.5 or 1.0%), VFS or growth medium (GM) and analyzed after 24h, 48h and 1 week. In order to precipitate the proteins in the biological fluids, 1 ml of acetonitrile (1:1) was added to 1 ml of sample and samples were centrifuged at 13,000 rpm for 10 min and filtered ([…] PVDF membrane; Chromafil®Xtra from Macherey-Nagel®) just before analysis, All samples were analyzed as triplicates.
The LC system was a Waters® Alliance 2695 (Waters®) equipped with a quaternary pump, solvent degasser, auto sampler and column oven, coupled to a Photodiode Array Detector Waters 996 PDA (Waters®) scanning from 210 to 600 nm. The separation was performed on a reversed phase column LiChrospher® 100 RP-18 (10 x 4.0mm; Merck®, Germany) operating at 35 °C, using an injection volume of 10 μl. The mobile phase consisted of water [Ultra-pure water (18.2MΩ.cm) from a Millipore-Direct Q3 UV system (Millipore, USA)] with TFA 0.1% (v/v) (98% p.a.; Merck®, Germany) (A) and acetonitrile with TFA 0.1% (v/v) (B) at a flow rate of 0.30 ml/min. The following gradient was used: 70% of A as initial conditions, 70% A to 30% A for 7 min. A cleaning step was performed using 100% of acetonitrile for 1 min and finally the column was re-equilibrated with 70% of eluent A for 5 min.
A triple quadrupole mass spectrometer MicroMass® Quattro micro (Micromass®, Waters®) with an electrospray ionization source (ESI) was coupled to the LC system, described above. The ion source conditions were optimized using a standard solution directly injected in the ion source: temperature 120°C, capillary voltage 3.0 kV and cone voltage 50 V. The compound was ionized in positive ion mode and the spectra, in Full Scan, were recorded in the range m/z 100–1700. All analyses were performed in multiple reactions monitoring (MRM) mode in order to achieve a high selectivity and sensitivity. […]

The subject of data set [2] is spermatozoa. In words: Spermicidal activity: sperm motility (CASA) and viability (Eosin Y). Type of data set: cell-based, human. Conditions: 114 μM P3, 37°C, 0, 30, 60, 120 and 240 min, versus control without P3; donors n = 3. As for the experimental part: Sperm was obtained from normal donors (n = 3) after signing a written informed consent. […] Spermatozoa viability was evaluated by dye exclusion method using a solution of Eosin Y (5mg/mL). Two hundred spermatozoa were counted with a phase-contrast microscope (Olympus, Modell BH-2), differentiating the live (unstained) spermatozoa from the dead (stained) cells. Sperm motility was evaluated in a Makler chamber using a computer-aided sperm analysis system (CASA, Hamilton Thorne Research, MA, USA). At least five microscopic fields were assessed in a systematic way to classify 200 spermatozoa motility. Each spermatozoon is graded according to cell velocity: progressive motility (i.e.,>5 μm/s), non-progressive motility (<5 μm/s) and immotility.

As for `CC[C@H](C)[C@H](NC(=O)[C@H](CC(N)=O)NC(=O)[C@H](C)NC(=O)[C@H](CCC(=O)O)NC(=O)[C@H](CC(C)C)NC(=O)[C@H](Cc1ccc(O)cc1)NC(=O)[C@H](CCCNC(=N)N)NC(=O)[C@@H](NC(=O)[C@H](CCC(N)=O)NC(=O)[C@H](CCC(N)=O)NC(=O)[C@H](CCC(=O)O)NC(=O)[C@H](Cc1c[nH]c2ccccc12)NC(=O)[C@H](CCC(=O)O)NC(=O)[C@H](CCC(N)=O)NC(=O)[C@H](Cc1c[nH]c2ccccc12)NC(C)=O)C(C)C)C(=O)N[C@@H](CO)C(=O)N[C@@H](CCC(N)=O)C(=O)N[C@@H](CCCNC(=N)N)C(=O)N[C@@H](CC(C)C)C(=O)N[C@@H](CCC(=O)O)C(=O)N[C@@H](CCC(N)=O)C(=O)N[C@@H](C)C(=O)N[C@@H](CCC(N)=O)C(=O)N[C@H](C(=O)N[C@@H](CCC(N)=O)C(=O)N[C@@H](CCC(N)=O)C(=O)N[C@@H](CCC(=O)O)C(=O)N[C@@H](CCCCN)C(=O)N[C@@H](CC(N)=O)C(=O)N[C@@H](CCSC)C(=O)N[C@@H](Cc1ccc(O)cc1)C(=O)N[C@@H](CCC(=O)O)C(=O)N[C@@H](CC(C)C)C(=O)N[C@@H](CCC(N)=O)C(N)=O)[C@@H](C)CC` [P3], in data set [1] (after 48h in 1% human seminal plasma), the P3 level is under 2.5 µg/mL. For the same compound, in data set [1] (after one week in 0.5% human seminal plasma), the P3 level is under 2.5 µg/mL. In addition, the “detection of P3 in the presence of VFS” value in data set [1] (vaginal fluid simulant pH 4.2, LC-MS/MS (MRM)) is recorded as “readily detectable”. In data set [2], the spermatozoa motility entry is “No significant changes” and the spermatozoa vitality entry is reported as “No significant changes”.
